Measured values taken from US20220111019A1, “BRCA1 MODULATING COMPOUNDS, FORMULATIONS THEREOF, AND USES THEREOF” (VIRGINIA TECH INTELLECTUAL PROPERTIES, INC., priority 2018, published 2022).
“Also recorded” adds a separate entry of the source.

Experiments:
[1] = tested on: HCC1937 cells; assay: MTS cell viability assay after H2O2 and/or ML364 treatment; format: cell-based, human; conditions: 1 mM H2O2 10 min, vs untreated cells
Method: (§1) Cell viability and proliferation assays. To determine cellular viability, we used the CellTiter 96® AQueous One Solution Cell Proliferation Assay (MTS; Promega). HCC1937 were seeded (about 4000 cells per well) in a 96-well plate at 37° C. and 5% CO2 overnight. Following a 10-minute incubation with culture media containing 1 mM H2O2, cells were washed with PBS solution and further treated with 7 μM ML364 for 24 hours at 37° C. with 5% CO2. Control cells were cultured in media lacking H2O2 and/or ML364 during the same time period. Culture media and containing MTS reagent was added to each well. The titer plate was incubated 37° C. and 5% CO2 for 1-4 hours. Absorbance values were measured at 490 nm using iMark microplate reader (Bio-Rad). MTS was also used to determine cell growth following ML364 treatment. HCC1937 cells were plated (about 1500 cells per well) in a 96-well plate at 37° C. and 5% CO2 overnight. Cells were treated with DMSO and ML364 at the different doses (2.5 μM-80 μM). After 3 days of incubation, cell viability was measured using the MTS reagent. Cellular survival was calculated by dividing the absorbance of the treated groups by those of the untreated groups (DMSO). Values for the half-maximal inhibitory concentration (IC50) were obtained using Prism software package (GraphPad).
Targeting cancer cells that express mutated BRCA1. As described elsewhere herein, mutated BRCA1 can be fine-tuned in vitro. The application of this aspect of the techology to treat cancer cells was evaluated. Enhancing the activity of tumor suppressors in healthy cells can facilitate their growth and resilience. Conversely, treating cancer cells with drugs that limit DNA repair may lessen their survival. Poly(ADP-Ribose) Polymerase (PARP) inhibitors have been used to treat BRCA1-related cancers (25-28). A limited-repair paradigm approach was developed and used treated breast cancer cells (HCC1937 line) with the DUB inhibitor, ML364 (Axon Ligands™). […] The viability of treated cells and untreated cells was quantified using MTS assay measurements.

[2] = tested on: 8-Oxo-Guanine (8-Oxo-G) accumulation in HCC1937 cells; assay: Immunofluorescence detection of 8-Oxo-Guanine DNA lesions; format: cell-based, human; conditions: for 8-Oxo-G accumulation in and around the nucleus: single treatment (ML364 in IC50 range or 1 mM H2O2 10 minutes)
Method: Fluorescence microscopy. The production of 8-Oxo-Guanine (8-Oxo-G) DNA lesions was detected by fluorescence imaging as previously described (10, 11). Briefly, HCC1937 cells (about 40,000 cells/chamber) were plated in an eight-chamber slide and incubated at 37° C. and 5% CO2 overnight. Cells were treated with complete culture media containing 1 mM H2O2 for 10-20 minutes to induce oxidative damage in the nucleus. Cells were then wash with 1× PBS and treated with ML364 (7 μM-9 μM) for up to 48 hours at 37° C. and 5% CO2. Control cells were cultured in media without H2O2 and ML364 during the same time period. Cells were washed with standard PBS solution and fixed with 4% paraformaldehyde (Electron Microscopy Sciences) for 15 minutes. The fixed cells were permiabilized by PBS solution containing 0.5% Triton X-100 (Sigma) for 10 minutes. After 1-hour blocking step with PBS supplemented with 10% normal goat serum (Jackson Immuno Research) and 0.2% Triton X-100, cells were incubated with anti-8-OxoG DNA Lesion (483.15; Santa Cruz Biotechnology) at 4° C. overnight. The 8-OxoG DNA lesions were detected with goat anti-mouse IgM-TR (Santa Cruz Biotechnology) and nuclei were stained with Hoechst 33342. An inverted fluorescence microscope (Zeiss Axio Vert.A1; Carl Zeiss Microscopy) was used to image the cells.
To determine the effect of ML364 on genomic stability, we performed immunofluorescent imaging on HCC1937 breast cancer cells to detect 8-Oxo-Guanine (8-Oxo-G) (FIG. 13C). The nuclear accumulation of 8-Oxo-G in cells indicates deficiencies in DNA damage repair (10, 11). Cells were treated with H2O2 to induce oxidative DNA damage. The ML364 drug was then administered to the cells in the IC50 range. The accumulation of 8-Oxo-G was detected using monoclonal antibodies against the substrate and fluorescently-labeled secondary antibodies. […] Under oxidative stress conditions, there was a minor degree of 8-Oxo-G detected in nuclear region following 10 minutes of treatment. […]

[3] = tested on: p53R306; assay: Western blot quantification of p53 in lysates of treated HCC1937 cells; format: cell-based, human; conditions: HCC1937 cell lysates; for decrease in p53 level: single treatment (ML364 or H2O2)
Method: (§2) Cell lysate preparations. For whole cell lysate preparations, HCC1937 cells were treated by adding 1 mM H2O2 to the culture media for 10-20 minutes, while incubating cells at 37° C. and 5% CO2. Following each incubation time, cells were washed with 1× PBS (Sigma) to eliminate residual H2O2. The cells were then treated with 7 μM-9 μM ML364 (Axon Medchem) for up to 48 hours at 37° C. and 5% CO2. Control cells were cultured in media lacking H2O2 and/or ML364 during the same time period. Cells were collected and washed with ice-cold 1× PBS once followed by centrifugation at 500×g for 5 minutes. Cell pellets were lysed by resuspending the pellets in buffer solution containing 20 mM HEPES (pH 6.8), 150 mM NaCl, 2.5 mM CaCl2, 2.5 mM MgCl2, 1 mM EDTA, 2% Nonidet-P40 (NP40), 1% Nadeoxycholate, 2× protease inhibitors (Sigma), 1× phosphatase inhibitors (Sigma), and 8% glycerol. The lysis mixture was incubated on ice for 30 minutes and centrifuged at 21,000×g for 15 minutes at 4° C. The supernatants were collected and protein concentrations were quantified using the standard Pierce Bradford assay.
(§3) SDS-Page, immunoblotting, and densitometry measurements. Protein fractions were also analyzed by SDS-PAGE denaturing gels followed by staining with SimplyBlue SafeStain solution (Invitrogen) or Western blotting as previously described (10). For Western blot analysis, the following primary antibodies were used: BRCA1 (C-20; Santa Cruz Biotechnology, sc-642), ubiquitin-pAb (Enzo Life Sciences, ADI-SPA-200), p53 (DO-1; Santa Cruz Biotechnology, sc-126), K63-linkage specific polyubiquitin (D7A11; Cell Signaling, #5621) and p-actin (Sigma-Aldrich, A5441). Western blot quantification was performed using Image Labrm Software (Bio-Rad). The intensity of each band was selected using the volume tool. Local subtraction and linear regression methods were implemented to eliminate the local background values and to quantify the band intensities.

[4] = tested on: BARD1; conditions: HCC70 cells, 1 mM H2O2, replicate experiments
Method: (§4) Authentication of cells, cell culture, and protein enrichment. Breast cancer cells (HCC70 and HCC1937 lines) used in this study were purchased from the American Type Culture Collection (ATCC) and independently characterized by ATCC as being triple negative primary ductal carcinoma cells. For all experiments, cells were promptly used within 6 months of resuscitation. Cells were cultured in RPMI-1640 (Mediatech) supplemented with 10% fetal bovine serum (ATCC) and 0.5× penicillin-streptomycin (Thermo Fisher) at 37° C. and 5% CO2 environment. BRCA1-BARD1 complexes were enriched as previously described (25). Briefly, about 1,000,000 cells were collected using Trypsin-EDTA (Thermo Fisher) followed by centrifugation (500×g, 5 minutes). For experiments involving hydrogen peroxide (H2O2), cells were collected with cell scrapers after treated with 1 mM of H2O2 (Sigma Aldrich) for 40 minutes at 37° C. and 5% CO2. Sub-cellular fractions (cytoplasmic and nuclear) were separated using the NE-PER kit (Thermo Scientific). The soluble nuclear material was incubated with Ni-NTA agarose beads (Qiagen) and incubated with rotation for 1 hour at 4° C. The beads were washed with five bed volumes of 20 mM HEPES buffer (pH 7.2, 140 mM NaCl, 2 mM CaCl2, 2 mM MgCl2 and 5 mM imidazole).

[5] = tested on: BRCA1; conditions: HCC70 cells, 1 mM H2O2, replicate experiments
Method: as §4

[6] = tested on: mutated BRCA1; assay: Western blot quantification of BRCA1 in lysates of treated HCC1937 cells; format: cell-based, human; conditions: HCC1937 cell lysates; for decrease in BRCA1 level: single treatment (ML364 or H2O2)
Method: as §2, §3

[7] = tested on: HCC1937 cells; assay: MTS cell growth assay after ML364 treatment (IC50); format: cell-based, human; conditions: 3 days of incubation, doses 2.5 μM-80 μM, read-out: half maximal inhibitory concentration (IC50) range
Method: as §1, with “Cells were treated with DMSO and ML364 at the different doses (2.5 μM-80 μM).” left out, “Values for the half-maximal inhibitory concentration (IC50) were obtained using Prism software package (GraphPad).” left out
Targeting cancer cells that express mutated BRCA1. […] The application of this aspect of the techology to treat cancer cells was evaluated. […] The viability of treated cells and untreated cells was quantified using MTS assay measurements.

[8] = tested on: p53; assay: Ubiquitin ligase assay in T98G nuclear extracts; format: biochemical, human; conditions: T98G nuclear reaction mixtures, 37° C., 1 hour, vs control samples
Method: Ubiquitin ligase assay. Aliquots of DUB-treated or “restored” BRCA1-BARD1 (0.2 mg/ml) were incubated with 10 μM ML364 (USP2 inhibitor) at 37° C. for 1 hour to halt USP2 activity. Samples were then stored overnight at 4° C. The restored BRCA1-BARD1 fractions were added in varying amounts to soluble nuclear extracts prepared from T98G cells. T98G cells naturally produced low levels of BRCA1. Control samples lacked restored BRCA1-BARD1. The reaction mixtures were incubated in a water bath at 37° C. for 1 hour.
Wild-type p53-caught in the act of repair. The extent to which restored BRCA1 could enhance the ubiquitin ligase activity of cells with inherently low levels of BRCA1 (T98G line) (FIGS. 16A-16C) was evaluated. Quantities of restored BRCA1-BARD1 were added to nuclear reaction mixtures prepared from T98G cells, and changes in ubiquitination were assessed over multiple experiments (FIG. 12A). To simplify the results, modifications to the p53 monomer was first evaluated. According to Western blots, full-length p53 migrated at about 50 kDa while ubiquitnated monomers migrated close to about 68 kDa (FIGS. 12B and 16A-16C). Proteins receiving K63-linked ubiquitin adducts are often involved in autophagy and DNA repair (22), (23), (24). […] As the T98G cells naturally produced little BRCA1, we attributed the increase in ubiquitin ligase activity to the restored BRCA1-BARD1 supplement.

Compound	cytotoxicity at 1000 µM ([1]; Homo sapiens, ML364 and H2O2 given separately, 7 μM ML364 24 hours, read-out: decrease in viability) [%]	8-Oxo-G accumulation in and around the nucleus [2]	decrease in p53 level [3]	decrease in BARD1 level [4]	decrease in BRCA1 level [5]	decrease in BRCA1 level [6]	decline in viability, combined treatment ([1]; then 7 μM ML364 24 hours)	decrease in viability ([1]; ML364 and H2O2 given separately, 7 μM ML364 24 hours)	IC50 [7] [µM]	8-Oxo-G accumulation, combination of H2O2 and ML364 ([2]; 1 mM H2O2 then ML364 in IC50 range, up to 48 hours)	decline in p53 level, combination of H2O2 and ML364 ([3]; H2O2 then ML364)	decline in BRCA1 level, combination of H2O2 and ML364 ([6]; H2O2 then ML364)	increase in K63-type ubiquitin adducts on p53 (ubiquitination of p53) [8]
OO [H2O2, hydrogen peroxide]	~50	minor degree	15-20%	10-20%	10-20%	15-20%							
Cc1ccc(S(=O)(=O)Nc2cc(C(F)(F)F)ccc2C(=O)Nc2nc(-c3ccccc3)cs2)cc1 [ML364]		more abundant; also recorded: higher level	about 30%			about 30%	about 70%	about 50%	7 to 10	greatest 8-Oxo-G buildup; also recorded: greatest degree; also recorded: higher level	about 50%	about 50%	
wild-type BRCA1-BARD1: wild type BRCA1-BARD1 heterodimer used as supplement for comparison													about 24%
